Several values for one entry are separate records, joined by “and”; a condition that tells them apart may be missing. Equal values may be shown once.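 Tested at 5 concentrations; 48 h exposure; 96-well plates; endpoints linearly interpolated, else capped at highest concentration. Here, GI50 denotes the concentration required for 50% inhibition of growth. TGI: total growth inhibition.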

Holding throughout (experiment): NCI-60 cell line screen, 48 h
In assay [1] the test system is A549 NSCLC.
The test system of assay [2] is DU-145 prostate.
Assay [3] has as its system IGROV1 ovarian.
Assay [4] deals with M14 melanoma.
Assay [5] has as its system MDA-MB-435.
In assay [6] the test system is NCI-H522 lung.
For assay [7], the system named is SNB-19 CNS.
Assay [8] deals with SW-620 colon.
Assay [9] relates to U251 CNS.
For assay [10], the system named is UACC-257 melanoma.

For `CN(C)CC1C(=O)O[C@H]2[C@H]1CC/C(COC(=O)NCc1ccc(Cn3c(=O)sn(CCCI)c3=O)cc1)=C\CC[C@@]1(C)O[C@@H]21` (stereo partly specified), the GI50 in assay [1] was 7.17 µM; in assay [2], 1.07 µM; in [3] it was 0.922 µM; in assay [4], 0.893 µM; in assay [5] it was 1.13 µM; in assay [6], 0.742 µM. In addition, the GI50 is 7.26 µM in [7], 0.998 µM in assay [8], 7.53 µM in [9] and 4.04 µM in assay [10]. The TGI in assay [1] was 14.4 µM; in assay [2], 2.16 µM; in assay [3], 1.97 µM; in assay [4], 1.92 µM; in assay [5], 2.73 µM; in assay [6], 1.68 µM. Further, the TGI in assay [7] was 14.2 µM; in [8] it was 2.09 µM; in assay [9], 14.3 µM; in [10], 11.7 µM.

`CN(C)c1cc2c(Nc3ccc4c(cnn4Cc4ccccc4)c3)ncnc2cn1`: the GI50 in assay [1] is 7.49 µM; in [2], 5.54 µM; in [3], 5.38 µM; in [4], 14.8 µM; in assay [5] it was 10.5 µM; in assay [6] it was 1.82 µM. Also, the GI50 was 12.7 µM in assay [7], 15.3 µM in [8], 7.8 µM in assay [9] and 13.2 µM in assay [10]. Moreover, the TGI in assay [1] was over 25 µM; in assay [2], over 25 µM; in [3] it was over 23.3 µM; in assay [4], over 25 µM; in assay [5] it was over 25 µM; in assay [6], over 25 µM. Further, the TGI was over 25 µM in assay [7], over 25 µM in assay [8], 24.4 µM in [9] and over 25 µM in assay [10].

As to `O=C1C(Cl)=C(Nc2cc(Cl)ccc2O)C(=O)N1Cc1ccccc1`, the GI50 in assay [1] was 17 µM; in assay [2], 18 µM; in [3] it was 5.53 µM; in assay [4], 17.1 µM; in assay [5], 19 µM; in assay [6], 15.1 µM. The GI50 is 25.4 µM in assay [7], 19 µM in [8], 15.8 µM in [9] and 14.1 µM in assay [10]. Further, the TGI in [1] was 36.7 µM; in [2] it was 33.5 µM; in [3] it was 26.4 µM; in [4], 33.3 µM; in [5] it was 34.9 µM; in assay [6], 30.5 µM. The TGI in [7] was over 61.2 µM; in assay [8] it was 38.5 µM; in assay [9], 29.6 µM; in [10], 28.3 µM.

`[Cl][Hg][c]1ccc2ccccc2c1`: the GI50 in assay [1] is 12.1 µM; in assay [2], 4.97 µM; in assay [3], 1.31 µM; in assay [4], 1.46 µM; in assay [5], 1.68 µM; in assay [6] it was 0.821 µM. For the same molecule, the GI50 in [7] is 2.22 µM; in [8] it was 1.77 µM; in [9], 1.31 µM; in assay [10], 1.97 µM. Moreover, the TGI in assay [1] was found to be 27.1 µM; in assay [2], 15.3 µM; in assay [3] it was 3.02 µM; in [4], 2.96 µM; in [5] it was 3.44 µM; in assay [6] it was 2.37 µM. In addition, the TGI in assay [7] stood at 5.21 µM; in assay [8], 3.62 µM; in [9] it was 2.68 µM; in assay [10] it was 4.33 µM.

Consider `C#CCOc1cccc(Nc2ncnc3cc(NC(=O)C=C)ccc23)c1`, for which the GI50 in [1] was 9.44 µM; in assay [2] it was 3.55 µM; in assay [3], 10.7 µM; in assay [4] it was 6.46 µM; in [5], 2.08 µM; in [6] it was 2.8 µM. Further, the GI50 in [7] is 23.8 µM; in assay [8], 3.15 µM; in assay [9] it was 17.4 µM; in assay [10], 32.3 µM. In addition, the TGI was over 100 µM in assay [1]; over 100 µM in assay [2]; over 100 µM in [3]; over 100 µM in assay [4]; over 100 µM in [5]; 34.2 µM in assay [6]. Also, the TGI was over 100 µM in [7], 27.8 µM in assay [8], over 100 µM in assay [9] and over 100 µM in assay [10].

On to `Cn1c2c(c3ccccc3c1=O)C(=O)c1ccccc1-2`, for which the TGI in assay [1], in assay [2], in assay [3], in assay [4], in assay [5] and in assay [6] was over 100 µM in each case. Moreover, the TGI in [7], in assay [8], in assay [9] and in assay [10] was over 100 µM each time.

`CCCCSc1nc(N)c2cn[nH]c2n1`: the GI50 in [1] was 27.6 µM; in [2] it was 23.9 µM; in assay [3] it was 29.5 µM; in assay [4] it was 13.3 µM; in assay [5], 21 µM; in [6], 20.7 µM. Moreover, the GI50 in [7] is 37.3 µM; in assay [8] it was 29.1 µM; in assay [9], 28.1 µM; in assay [10], 19.4 µM. The TGI in assay [1] was over 73.6 µM; in [2], 72 µM; in assay [3], over 100 µM; in assay [4], 29.5 µM; in assay [5], 41.8 µM; in assay [6], 49.6 µM. For the same molecule, the TGI was over 76.8 µM in assay [7], over 70 µM in [8], over 64.1 µM in assay [9] and 35 µM in assay [10].

Consider `CC(=O)c1ccc2c3c1[C@H]1O[C@H]1c1cccc(c1-3)[C@@H]1O[C@H]21`, for which the TGI in assay [1] is 9.32 µM; in [2], 7.19 µM; in [3], 0.294 µM; in assay [4] it was 3.38 µM; in assay [5], 4.54 µM; in assay [6] it was 1.1 µM. Also, the TGI in assay [7] is 13.1 µM; in assay [8], 3.01 µM; in assay [9], 4.3 µM; in [10], 8.1 µM.

On to `O=C1c2ccn(CCCNC(CO)(CO)CO)c2C(=O)c2c1c(O)c1ccccc1c2O`, for which the GI50 in assay [1] was 16.9 µM; in [2], 11.5 µM; in assay [3], 9.27 µM; in assay [4], 14.1 µM; in [5] it was 34.1 µM; in [6], 12.9 µM. For the same molecule, the GI50 was 36.3 µM in assay [7], 4.09 µM in assay [8], 15.2 µM in assay [9] and 43.9 µM in assay [10]. The TGI in assay [1] is 36.8 µM; in [2], 25 µM; in [3] it was 56.8 µM; in assay [4], 30.1 µM; in assay [5], over 65.4 µM; in assay [6] it was 46.6 µM. The TGI was over 100 µM in [7], 18.6 µM in [8], 36.6 µM in assay [9] and over 78.1 µM in assay [10].

As for `CSc1ccc(NC(=O)Nc2cc(C)ccn2)cc1`, the TGI in assay [1], in assay [2], in [3], in [4], in assay [5] and in [6] was over 100 µM each time. Moreover, the TGI in assay [7], in assay [8], in [9] and in assay [10] was over 100 µM each time.

Consider `COc1cc2c3c(n(CCN4CCOCC4)c(=O)c2cc1OC)-c1ccccc1C3=O`, for which the GI50 in [1] was over 100 µM; in assay [2], over 100 µM; in assay [3], 17.2 µM; in [4], over 100 µM; in assay [5], over 100 µM; in assay [6], 21.2 µM. Further, the GI50 was over 100 µM in [7], 89.2 µM in assay [8], 62.3 µM in assay [9] and over 100 µM in [10]. Further, the TGI in [1], in assay [2], in assay [3], in [4], in [5] and in [6] was over 100 µM throughout. For the same molecule, the TGI in [7], in [8], in assay [9] and in assay [10] was over 100 µM each time.

`CC(C)(O)CCc1cccc(C(=O)c2cnn(-c3ccc(F)cc3)c2N)c1`: the GI50 in assay [1], in assay [2], in assay [3], in assay [4], in assay [5] and in assay [6] was over 25 µM each time. The GI50 in assay [7], in assay [8], in assay [9] and in assay [10] was over 25 µM in each case. Also, the TGI in assay [1], in assay [2], in assay [3], in assay [4], in assay [5] and in assay [6] was over 25 µM each time. Also, the TGI in assay [7], in assay [8], in [9] and in assay [10] was over 25 µM each time.

Turning to `C=C(C)C1CCC2=CC(CC3(C)OC3C3=CC(C(=O)OC)=C(C1)O3)OC2=O` (stereo unspecified), the TGI in [1], in [2], in assay [3], in [4], in assay [5] and in assay [6] was over 100 µM each time. Moreover, the TGI in [7], in [8], in assay [9] and in assay [10] was over 100 µM throughout.

Regarding `CSc1nnc(-c2cc3c([nH]c4ccccc43)c(-c3cccc(O)c3)n2)n1-c1ccc(C)cc1`, the GI50 in [1] was 3.79 µM; in assay [2], 4.57 µM; in [3], 3.62 µM; in [4], 3.83 µM; in assay [5], 1.32 µM; in assay [6], 2.26 µM. The GI50 in assay [7] was 3.71 µM; in assay [8], 5.8 µM; in assay [9], 4.84 µM; in assay [10], 5 µM. In addition, the TGI in [1] was 24.6 µM; in assay [2] it was 77.6 µM; in assay [3], 24.6 µM; in assay [4], over 100 µM; in [5], 11.2 µM; in [6], 11.1 µM. In addition, the TGI in assay [7] was 28.6 µM; in assay [8], over 100 µM; in assay [9], 28.7 µM; in assay [10] it was 44.7 µM.

For `COc1cccc(N2CCN(c3ncnc4cc[nH]c34)CC2)c1`, the GI50 in assay [1] is 12.2 µM; in [2], 43.2 µM; in assay [3] it was 32.2 µM; in assay [4], 3.76 µM; in [5], 2.73 µM; in [6], 8.78 µM. Also, the GI50 in assay [7] is over 100 µM; in assay [8], 68.6 µM; in assay [9], 12.7 µM; in assay [10] it was 2.32 µM. In addition, the TGI was over 100 µM in [1]; over 100 µM in assay [2]; over 100 µM in [3]; 26.3 µM in [4]; 19 µM in [5]; 64.1 µM in [6]. Moreover, the TGI in assay [7] was over 100 µM; in assay [8] it was over 100 µM; in assay [9], over 100 µM; in assay [10], 29.2 µM.

Consider `COc1ccc(/C=C\c2cc(OC)c(OC)c(OC)c2)cc1OC(=O)CC(N)C(=O)O` (stereo unspecified), for which the GI50 in assay [1] is 0.00304 µM; in [3] it was 0.00355 µM; in assay [4] it was 0.00046 µM; in assay [6], 0.000424 µM; in [7], 0.000909 µM; in assay [8], 0.000318 µM. In addition, the GI50 in assay [9] is 0.000352 µM; in [10] it was 11.9 µM. Also, the TGI was 49.5 µM in [1]; 0.0187 µM in assay [2]; over 100 µM in [3]; 0.000316 µM in [5]; 0.00157 µM and 0.00192 µM in [6]; over 100 µM in [8]. The TGI in assay [9] was 0.00855 µM and 0.0702 µM; in assay [10] it was over 100 µM.

Values taken from PubChem BioAssay (NCI).
